Measured values reported in US20250082589A1, “PHENYLETHYLIDENEHYDRAZINE DIMERS AND METHODS OF USING SAME” (NEURAWELL THERAPEUTICS, priority 2021, published 2025).
Where two headings read alike, the source gives them in different places. Values belong to the compound of their own block, whether it stands above or below them.

What was measured:
[1] = pH stability studies at pH 9.2 and pH 7.4; format: physicochemical
Excerpt: Batch 1830-013. Although UPLC confirmed the presence of PEH and the azine (FIG. 6A), no signals due to either species were detected in the NMR in CDCl3 (FIG. 6B).

[2] = LC-MS analysis of first preparative HPLC fraction in solution and after lyophilization; format: physicochemical
Experimental: See also FIG. 22A-C. […] Peak nos. […] Peak nos.
LCMS Method. The LCMS analysis was performed on a Dionex UHPLC Ultimate 3000 with DAD detector/Thermo Scientific ISQ EC-Mass Spectrometer with a wavelength range of 190-350 nm±4 nm. […] The elution scheme shown in Table 12 was used for chromatographic separation. Mobile phase C was 0.05% ammonium hydroxide in water (28.0-30.0% NH3 basis) and Mobile phase D was acetonitrile. The syringe washing solution was 20% MeOH. The MS conditions were a mass range of 100-1000 m/z and scan speed of 12 000 amu/sec.

[3] = target: T1, MAO-B (Homo sapiens, UniProt P27338); conditions: cited from earlier work
T1 sequence (P27338 1-520): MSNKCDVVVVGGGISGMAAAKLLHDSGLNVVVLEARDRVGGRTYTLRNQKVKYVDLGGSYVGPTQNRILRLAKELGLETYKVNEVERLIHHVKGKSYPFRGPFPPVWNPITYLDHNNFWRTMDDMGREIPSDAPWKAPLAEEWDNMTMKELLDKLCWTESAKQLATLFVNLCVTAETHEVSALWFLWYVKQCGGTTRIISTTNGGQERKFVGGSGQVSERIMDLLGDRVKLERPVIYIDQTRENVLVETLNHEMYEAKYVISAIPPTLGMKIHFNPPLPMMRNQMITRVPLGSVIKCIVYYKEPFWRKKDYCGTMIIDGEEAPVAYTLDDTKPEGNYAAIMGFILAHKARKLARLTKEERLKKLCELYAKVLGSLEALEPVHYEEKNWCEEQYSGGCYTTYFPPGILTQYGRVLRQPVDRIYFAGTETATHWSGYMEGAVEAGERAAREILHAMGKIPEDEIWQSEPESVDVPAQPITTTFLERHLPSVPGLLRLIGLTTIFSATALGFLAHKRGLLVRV

[4] = PEH stability tests by LCMS (batch 1830-023); format: physicochemical; conditions: stored at −80° C.
Experimental: See also FIG. 27, which illustrates the results from the stability tests of PEH. […] Compounds were separated on a Kinetix® 2.6 μm XB—C18 (4.6×50 mm), 110A, column no. 00B-4496-EO column using gradient elution with a column temperature of 25° C. at a flow of 1.0 mL/min. The elution scheme shown in Table 15 was used for chromatographic separation. Mobile phase C was 0.05% ammonium hydroxide in water (28.0-30.0% NH3 basis) and Mobile phase D was acetonitrile. The syringe washing solution was 20% MeOH. The MS conditions were a mass range of 100-1000 m/z and scan speed of 12 000 amu/sec.

[5] = 1H NMR stability of PEH sample 1830-011 over time and in different deuterated solvents; format: physicochemical
Experimental: ^1H NMR was employed to probe the stability of PEH sample 1830-011 both in terms of time after preparation and in different deuterated solvents. […] In Py-d6, about 10% of PEH was transformed to the azine. Additionally, a new sample from the obtained oil in sample 1830-011 in which the oil was prepared after 3 days storage in −20° C. under argon was prepared and measured directly in CDCl3. After 3 days, the contamination of PEH with azine was equal to 18% (the ratio of PEH:Azine was 82:18).

[6] = target: T2, MAO-A (Homo sapiens, UniProt P21397); conditions: cited from earlier work
T2 sequence (P21397 1-527): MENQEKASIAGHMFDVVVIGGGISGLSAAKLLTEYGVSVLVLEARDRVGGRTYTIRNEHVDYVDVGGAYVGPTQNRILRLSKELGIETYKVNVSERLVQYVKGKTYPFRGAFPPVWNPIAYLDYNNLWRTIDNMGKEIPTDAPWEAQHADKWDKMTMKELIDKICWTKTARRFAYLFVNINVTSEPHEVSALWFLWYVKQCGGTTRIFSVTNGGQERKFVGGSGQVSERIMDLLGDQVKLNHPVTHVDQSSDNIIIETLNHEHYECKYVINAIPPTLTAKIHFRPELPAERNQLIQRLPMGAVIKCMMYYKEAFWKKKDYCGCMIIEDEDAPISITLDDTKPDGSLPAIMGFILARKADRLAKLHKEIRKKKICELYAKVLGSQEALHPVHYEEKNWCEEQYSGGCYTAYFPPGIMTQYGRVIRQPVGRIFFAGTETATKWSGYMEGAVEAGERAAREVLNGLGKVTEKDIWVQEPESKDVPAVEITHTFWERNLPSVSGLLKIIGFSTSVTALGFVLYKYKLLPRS

[7] = PEH 1830-003B, NMR
[8] = 1H NMR stability of azine sample 1830-012 over time and in different deuterated solvents; format: physicochemical; conditions: 1830-012 oil after 3 days storage in −20° C. under argon, new sample measured directly in CDCl3
Experimental: ^1H NMR was employed to probe the stability of azine sample 1830-012 both in terms of time after preparation and in different deuterated solvents.
Additionally, a new sample from the oil obtained in sample 1830-012, in which the oil was prepared after 3 days storage in −20° C. under argon, was prepared and measured directly in CDCl3.
After 3 days, the contamination of the azine with PEH was equal to 9% (the ratio of PEH:Azine was 9:91). […] Thus, it is theorized that purification cannot be accomplished by column chromatography. […] First, EtOH (2.0 mL) was added to 300 mg of crude product 1830-012 and heated to reflux. During refluxing, ˜1.0 mL of EtOH evaporated. The mixture was then slowly cooled to room temperature and then cooled to 0° C. After 3 days at 0° C., no precipitate was observed. In a second attempt, cold EtOH (3.0 mL) was added to 600 mg of crude product 1830-012 and the suspension was stirred at 0° C. for 15 minutes. The white precipitate was filtered (m=131 mg) and washed with small amounts of cold EtOH (see FIG. 5).

[9] = LC-MS analysis of azine yellow precipitate (1830-014) after dissolution and storage; format: physicochemical
Experimental: Crystallization was performed on 3.6 g of the crude azine product for 1830-014 using the second method as described above for 1830-012 (FIG. 9). White (m=0.490 g) and yellow (m=1.473 g) precipitates were obtained. LC-MS analysis was also performed on the azine sample obtained as a yellow precipitate (1830-014), with chromatograms obtained directly after dissolution (FIG. 10A) and 27 hours after dissolution (FIG. 10B). The quantitative results are described in Table 12 and Table 13 below. According to the LC-MS analysis using % relative area corresponding to the appropriate MS peaks, the azine sample obtained as a yellow precipitate was 96.24% azine. 27 hours after dissolution, the sample was 91.77% azine. After one month of storage at −20° C. under Argon, the sample was 91.56% azine (data not shown).
LCMS Method. The LCMS analysis was performed on a Dionex UHPLC Ultimate 3000 with DAD detector/Thermo Scientific ISQ EC-Mass Spectrometer with a wavelength range of 190-350 nm±4 nm. Compounds were separated on a Kinetix® 2.6 μm XB—C18 (4.6×50 mm), 110 A, column no. 00B-4496-EO column using gradient elution with a column temperature of 25° C. at a flow of 1.0 mL/min. The elution scheme shown in Table 12 was used for chromatographic separation. Mobile phase C was 0.05% ammonium hydroxide in water (28.0-30.0% NH3 basis) and Mobile phase D was acetonitrile. The syringe washing solution was 20% MeOH. The MS conditions were a mass range of 100-1000 m/z and scan speed of 12 000 amu/sec.

[10] = Stability under acidic or basic UPLC conditions; format: physicochemical
Experimental: Batch 1830-001. […] The purity of the sample was 20%.
The peak at R.T.=1.70 min corresponds to the azine according to mass spectrometry (FIG. 13B, bottom panel), and the azine was present at 69% purity.
UPLC Method. The UPLC analysis was performed on a Waters ACQUITY UPLC I-Class PLUS System with a Waters SQ Detector 2 in the wavelength range of 200-400 nm. Compounds were separated on an Acquity UPLC BEH C18 1.7 μm/130 Å (2.1×100 mm) column using gradient elution with a column temperature of 40° C. at a flow of 0.5 mL/min. The elution scheme shown in Table 11 was used for chromatographic separation. Mobile phase A was 0.05% ammonium hydroxide in water (28.0-30.0% NH3 basis) and Mobile phase B was acetonitrile. The syringe washing solution was 50% ACN, 50% water. The MS conditions were a mass range of […] and scan time of 0.15 s.

[11] = PEH 1830-011, first fraction after preparative HPLC and lyophilization

Structure (SMILES): NN=CCc1ccccc1 [PEH, phenylethylidenehydrazine]
- pH stability ([1]; pH 7.4): the azine and the aldehyde are formed
- pH stability ([1]; pH 9.2): stable at pH=9.2
- stability during lyophilization [2]: undergoes decomposition during lyophilization
- % PEH by LCMS [2, 11]: 12.70%
- % azine in PEH sample by LCMS [2, 11]: 85.89%
- % PEH by LCMS ([2]; PEH 1830-011, first fraction after preparative HPLC, solution, before lyophilization): 92.66%
- % azine in PEH sample by LCMS ([2]; PEH 1830-011, first fraction in solution after preparative HPLC): 4.14%
- inhibition of MAO-B [3]: weak and transient inhibitor
- Purity of PEH (summarized isomers), stability test ([4]; Extract (liq) in chloroform, after 1 day): 97.36
- Purity of PEH (summarized isomers), stability test ([4]; Extract (liq) in chloroform, after 2 days): 97.86
- Purity of PEH (summarized isomers), stability test ([4]; Extract (liq) in chloroform, after 3 days): 97.82
- Purity of PEH (summarized isomers), stability test ([4]; Extract (liq) in chloroform, after 4 days): 97.65
- Purity of PEH (summarized isomers), stability test ([4]; Extract (liq) in chloroform, after 7 days): 96.14
- Purity of PEH (summarized isomers), stability test ([4]; Extract (liq) in chloroform, after reaction): 98.49
- Purity of PEH (summarized isomers), stability test ([4]; solid (concentrated material), after 1 day): 68.46
- Purity of PEH (summarized isomers), stability test ([4]; solid (concentrated material), after 2 days): 69.82
- Purity of PEH (summarized isomers), stability test ([4]; solid (concentrated material), after 3 days): 64.26
- Purity of PEH (summarized isomers), stability test ([4]; solid (concentrated material), after 4 days): 66.89
- Purity of PEH (summarized isomers), stability test ([4]; solid (concentrated material), after 7 days): 67.38
- Purity of PEH (summarized isomers), stability test ([4]; solid (concentrated material), after reaction): 81.17
- contamination of PEH with azine ([5]; 1830-011 oil after 3 days storage in −20° C. under argon, new sample measured directly in CDCl3): 18%
- PEH transformed to the azine ([5]; PEH sample 1830-011 in Py-d6): about 10%
- inhibition of MAO-A [6]: weak and transient inhibitor
- level of azine impurity during drying ([7]; after drying for 15 min): 7%
- level of azine impurity during drying ([7]; after drying for 3 hours): 22%

- pH stability ([1]; pH 9.2): stable at pH 9.2
- stability during lyophilization ([2]; after preparative HPLC): remained stable after lyophilization
- % azine by LC-MS relative area ([2]; azine 1830-015, first fraction after lyophilization): 99.93%
- % azine by LC-MS relative area ([2]; azine 1830-015, first fraction after preparative HPLC, in solution): 99.61%
- contamination of the azine with PEH [8]: 9%
- % azine by LC-MS relative area ([9]; yellow precipitate 1830-014, 27 hours after dissolution): 91.77%
- % azine by LC-MS relative area ([9]; yellow precipitate 1830-014, after one month of storage at −20° C. under Argon): 91.56%
- % azine by LC-MS relative area ([9]; yellow precipitate 1830-014, directly after dissolution): 96.24%
- stability in acidic conditions (UPLC) ([10]; acidic conditions): not stable in acidic conditions
- stability in basic conditions (UPLC) ([10]; basic conditions, sample 1830-001): stable in basic conditions
Structure (SMILES): C(/Cc1ccccc1)=N\N=C\Cc1ccccc1 [azine, (1E,2E)-1,2-bis(2-phenylethylidene)hydrazine]
- pH stability ([1]; pH 7.4): undergoes rapid hydrolysis to the aldehyde
